Test system: G-401 tumor spheroids, viability % test/control
Test: Anticancer human tumor G-401 cell line growth inhibition;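 note: spheroids exposed to compound for 7 days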;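 for viability, T/C: 100% = DMSO vehicle-treated spheroids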
Conditions: spheroids with HUVEC and MSC; for IC50: curve of first compound; for viability, T/C: stronger effect = lower value
Summary of the method: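 Complex tumor spheroids combined malignant cells with endothelial cells and mesenchymal stem cells. DNA-damaging drugs and DNA repair inhibitors were tested alone and in combination, at half-log dilutions down from clinical Cmax (top 10 microM if Cmax unknown), 0.25% DMSO final.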

Compound `CC1COCCN1c1cc(-c2ccnn2C)c2ccnc(-c3ccn[nH]3)c2n1` (stereo not given) + COc1cc2c(cc1O)CCNC21CSC2c3c(OC(C)=O)c(C)c4c(c3C(COC1=O)N1C(O)C3Cc5cc(C)c(OC)c(O)c5C(C21)N3C)OCO4 has an IC50 (second compound 30 pM) of 39.6 nM, an IC50 (second compound 94.9 pM) of less than 31.6 nM and an IC50 (second compound 0.0003 µM) of less than 31.6 nM. It also gave an IC50 (second compound 0.000949 µM) of less than 31.6 nM, an IC50 (second compound 0.003 µM) of less than 31.6 nM and a viability, T/C (second compound 30 pM, first compound 0.0316 µM) of 57.3%. It also gave a viability, T/C (second compound 30 pM, first compound 0.1 µM) of 22.1%, a viability, T/C (second compound 30 pM, first compound 0.316 µM) of 12.5% and a viability, T/C (second compound 30 pM, first compound 1 µM) of 12.3%. For the same compound, the viability, T/C (second compound 30 pM, first compound 3.16 µM) was 14.6%, the viability, T/C (second compound 30 pM, first compound 10 µM) was 16.3% and the viability, T/C (second compound 94.9 pM, first compound 0.0316 µM) was 32%. It also gave a viability, T/C (second compound 94.9 pM, first compound 0.1 µM) of 16.9%, a viability, T/C (second compound 94.9 pM, first compound 0.316 µM) of 10.8% and a viability, T/C (second compound 94.9 pM, first compound 1 µM) of 11.2%. For the same compound, the viability, T/C (second compound 94.9 pM, first compound 3.16 µM) was 12.9%, the viability, T/C (second compound 94.9 pM, first compound 10 µM) was 15.8% and the viability, T/C (second compound 0.0003 µM, first compound 0.0316 µM) was 13.1%. For the same compound, the viability, T/C (second compound 0.0003 µM, first compound 0.1 µM) was 10.8%, the viability, T/C (second compound 0.0003 µM, first compound 0.316 µM) was 9.87% and the viability, T/C (second compound 0.0003 µM, first compound 1 µM) was 9.44%. It also gave a viability, T/C (second compound 0.0003 µM, first compound 3.16 µM) of 11%, a viability, T/C (second compound 0.0003 µM, first compound 10 µM) of 14% and a viability, T/C (second compound 0.000949 µM, first compound 0.0316 µM) of 7.87%. It also gave a viability, T/C (second compound 0.000949 µM, first compound 0.1 µM) of 7.07%, a viability, T/C (second compound 0.000949 µM, first compound 0.316 µM) of 6.97% and a viability, T/C (second compound 0.000949 µM, first compound 1 µM) of 4.82%. The viability, T/C (second compound 0.000949 µM, first compound 3.16 µM) was 3.79%, the viability, T/C (second compound 0.000949 µM, first compound 10 µM) was 1.07% and the viability, T/C (second compound 0.003 µM, first compound 0.0316 µM) was 0.15%. The viability, T/C (second compound 0.003 µM, first compound 0.1 µM) was 0.14%, the viability, T/C (second compound 0.003 µM, first compound 0.316 µM) was 0.12% and the viability, T/C (second compound 0.003 µM, first compound 1 µM) was 0.11%. The viability, T/C (second compound 0.003 µM, first compound 3.16 µM) was 0.11% and the viability, T/C (second compound 0.003 µM, first compound 10 µM) was 0.17%.

From PubChem BioAssay AID1845203 (Molecular Pharmacology Branch, DTP, NCI, 2023)
